Test results taken from BindingDB's records for PubMed 8558460 (Yamanouchi Pharmaceutical, 1996).
Several values for one entry are separate records, joined by “and”; a condition that tells them apart may be missing. Equal values may be shown once.

Assays:
[1] = target: Glutamate receptor ionotropic, kainate 1 (Rattus norvegicus, UniProt P22756)
[2] = target: Glutamate receptor ionotropic, NMDA 1 (Rattus norvegicus, UniProt P35439)
Glutamate receptor 3 = Glutamate receptor 3 (Rattus norvegicus, UniProt P19492)
Glutamate receptor 3, sequence (P19492 whole entry): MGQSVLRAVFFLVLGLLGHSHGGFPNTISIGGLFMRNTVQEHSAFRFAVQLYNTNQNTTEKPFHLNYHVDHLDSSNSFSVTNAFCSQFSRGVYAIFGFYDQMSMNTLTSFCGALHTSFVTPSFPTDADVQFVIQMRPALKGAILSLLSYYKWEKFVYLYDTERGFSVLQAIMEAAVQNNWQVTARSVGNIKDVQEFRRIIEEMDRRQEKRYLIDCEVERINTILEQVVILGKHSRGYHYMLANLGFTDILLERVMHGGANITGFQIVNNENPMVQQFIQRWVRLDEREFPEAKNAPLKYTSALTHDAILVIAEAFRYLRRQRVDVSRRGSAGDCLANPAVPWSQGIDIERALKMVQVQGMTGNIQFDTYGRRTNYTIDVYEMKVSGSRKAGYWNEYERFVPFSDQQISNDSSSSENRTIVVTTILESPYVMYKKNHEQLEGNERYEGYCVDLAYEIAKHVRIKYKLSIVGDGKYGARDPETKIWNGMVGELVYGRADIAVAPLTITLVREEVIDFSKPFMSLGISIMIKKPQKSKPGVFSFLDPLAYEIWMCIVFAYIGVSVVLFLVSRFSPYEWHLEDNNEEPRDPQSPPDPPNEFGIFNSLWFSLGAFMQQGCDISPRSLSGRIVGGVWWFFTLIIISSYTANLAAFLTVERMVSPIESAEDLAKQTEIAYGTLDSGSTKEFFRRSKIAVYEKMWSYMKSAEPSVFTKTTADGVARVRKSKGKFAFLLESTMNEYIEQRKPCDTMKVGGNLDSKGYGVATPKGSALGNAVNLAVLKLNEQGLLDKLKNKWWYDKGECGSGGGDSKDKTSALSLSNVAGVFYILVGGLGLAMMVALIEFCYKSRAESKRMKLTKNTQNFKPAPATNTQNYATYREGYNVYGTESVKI

Glutamate receptor ionotropic, kainate 1, sequence (P22756 whole entry): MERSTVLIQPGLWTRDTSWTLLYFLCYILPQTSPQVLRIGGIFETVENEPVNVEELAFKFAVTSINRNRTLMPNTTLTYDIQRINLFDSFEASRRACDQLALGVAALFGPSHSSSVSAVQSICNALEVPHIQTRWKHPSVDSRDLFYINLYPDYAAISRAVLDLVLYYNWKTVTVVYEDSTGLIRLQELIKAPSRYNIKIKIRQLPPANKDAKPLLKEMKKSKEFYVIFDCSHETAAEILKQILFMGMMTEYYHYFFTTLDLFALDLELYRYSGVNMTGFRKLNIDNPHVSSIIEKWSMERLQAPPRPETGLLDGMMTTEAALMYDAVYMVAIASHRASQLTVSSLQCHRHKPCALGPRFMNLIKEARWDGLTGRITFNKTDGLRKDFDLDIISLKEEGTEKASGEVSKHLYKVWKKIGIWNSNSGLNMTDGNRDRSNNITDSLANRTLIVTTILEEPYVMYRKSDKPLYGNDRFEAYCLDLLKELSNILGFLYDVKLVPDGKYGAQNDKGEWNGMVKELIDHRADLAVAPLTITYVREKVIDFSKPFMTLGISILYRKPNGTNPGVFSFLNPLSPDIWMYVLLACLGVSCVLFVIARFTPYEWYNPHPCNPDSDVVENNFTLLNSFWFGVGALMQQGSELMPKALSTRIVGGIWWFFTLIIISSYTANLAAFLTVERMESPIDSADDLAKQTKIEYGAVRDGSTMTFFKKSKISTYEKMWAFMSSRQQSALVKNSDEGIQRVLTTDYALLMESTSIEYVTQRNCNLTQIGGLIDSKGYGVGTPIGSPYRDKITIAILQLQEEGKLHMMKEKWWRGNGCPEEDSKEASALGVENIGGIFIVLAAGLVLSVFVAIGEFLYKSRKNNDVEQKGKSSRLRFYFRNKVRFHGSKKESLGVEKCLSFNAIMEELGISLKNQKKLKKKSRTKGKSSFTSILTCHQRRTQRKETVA

Row | Ki [1] [nM] | Ki [2] | Ki (Glutamate receptor 3) [nM] | Structure (SMILES)
1 | 1800 | > 10000 nM and 5600 nM | – | N#Cc1cc2nc(O)c(O)nc2cc1[N+](=O)[O-] [7-Cyano-3-hydroxy-6-nitro-quinoxalin-2-ol anion]
2 | 2200 | > 10000 nM | 84 | O=C1N=c2cc(N(O)O)c(-n3ccnc3)cc2=NC1=O [CAS_3035216]
